Reference: patent US20180201594A1, “Compound pac-1 or salt thereof and pharmaceutical composition comprising same” (priority 2015, published 2018)
pIC50: −log10 of the molar value. Marks after values point to notes of the source that are not given here.

Key:
HGC-27 cells [1] = test: Three-dimensional migration (Transwell assay), HGC-27; format: cell-based; conditions: for Cell number (transmembrane cells): 24 h, n = 9
Experimental: (§1) Starved cells were digested and collected, which were suspended in serum-free medium. The cell intensity was adjusted into 3×10^5 s cells/mL. 100 μL of the cell suspension was added into the upper chamber and 700 μL of medium with 10% serum to the lower chamber per well. According to the experimental design, 50 μL serum-free medium was added per well for the control group, 50 μL of drug-containing serum-free medium was added for the administration groups. They were continued to be cultured in the incubator for another 24 h. The upper chamber was taken, with methanol fixation for 30 min, dyed with Giemsa stain for 30 min, rinsed with clean water twice. The cells on the bottom membrane surface of the upper chamber were carefully wiped off with a wet cotton swab, dried in the air. With the bottom up, they were transferred onto glass slide and sealed with neutral gum. Under the microscope, nine random fields were taken and the transmembrane cells therein were counted. The average values were statistically calculated.

HT-1080 cells = test: Three-dimensional migration (Transwell assay), HT-1080; format: cell-based, human; conditions: for Cell number (transmembrane cells): 24 h, n = 9
Experimental: as §1

HUVEC = HUVEC tubule formation assay; format: cell-based
Experimental: Tubule formation assay: the matrigel was thawed at 4° C. overnight, which was 1:1 diluted with serum-free ECM medium and coated onto 96-well plates. The diluted matrigel was sucked by precooled pipette gun tip, which was added into pre-cooled 96-well plates, with 50 μL per well. The matrigel was placed on ice for 5 min to make the matrigel surface level, and then the 96-well plates were put into a cell incubator at 37° C. for 1 h to cause gel coagulation. Trypsinize cells, the cells were counted and diluted with ECM medium. The cell density was adjusted to […], and the cells were seeded into coated 96-well plates with 100 μL per well. According to the MTT results, the ZYS-1 solution at different concentrations were formulated. 100 μL of the solutions were taken and added into the cell-seeded wells to make the final concentration at 2, 1, 0.5 μM. At the same time, the positive control was set as recombinant human endostatin (Endostar) and the negative control as without drugs but medium only. Each concentration of the experimental groups and the control groups all were set three replicates, which were placed and cultured in the incubator. After culturing 18 h, the culture was observed under microscope and taken the pictures to record the circumference, area of the generated tubes and the number of nodes as indicators for the formation of tubule. […]

HUVECs = test: HUVEC viability (MTT method); format: cell-based; conditions: Homo sapiens, 48 h
Experimental: Test Methods: The effect of ZYS-1 on the viability of HUVECs was determined by MTT method. The HUVECs in logarithmic growth phase were taken and digested with 0.25% trypsin, centrifuged and resuspended in ECM complete medium to formulate into […] single cell suspension. The cells were seeded in 96-well culture plates at a density of 1×10^4 cells/well, with a volume of 100 μL per well. They were placed and cultured in the incubator with 37®, 5% CO2. After culturing 24 h, […] different concentrations of ZYS-1 solution were added to obtain the final concentrations of drugs at 0.1, 0.5, 1, 5, 10, 50 and 100 μM. Meanwhile, the positive control group was set as etoposide at a final concentration of 10 μM, and the negative control was an equal amount of 0.1% DMSO solution. Each concentration of the experimental groups and the control groups all were set five replicates, with 100 μL of drugs per well. The blank control group is additionally set as 200 μL complete medium. The cells were placed and cultured in the incubator with 37 m, 5% CO2. After culturing for 48 h, 20 μL MTT solution (5 mg/mL) was added to each well, which was continued to be cultured for another 4 h. […] The light absorbance value of each well was measured by enzyme-linked immunosorbent assay. The measured wavelength was 570 nm and the result was recorded. […]

HGC-27 cells [2] = test: Two-dimensional migration (cell scratch assay); format: cell-based; conditions: n = 3
Experimental: HGC-27 cells in logarithmic growth phase were collected. The cell with density of 5×10^5 cells/mL was spread onto 24-well plates (0.5 mL per well). RMPI-1640 culture medium with 10% fetal bovine serum was added and cultured for 24 h to form monolayer cells. The monolayer cells were scratched in a line by 20 μL pipette gun tip, which was washed with PBS three times. Then, drug-containing media with 2% fetal bovine serum s were added, which concentrations were 2 μM, 4 μM, respectively. The media were cultured in the incubator with 37 ? , 5% CO2 saturated humidity. Sampled at 0, 4, 8, 12 h and took the pictures. The area where cells were migrated from scratch edge to scratch within the same field was counted by software.

[3] = Homo sapiens, HGC-27, 24 h, read-out: Inhibition Rate
[4] = Homo sapiens, HT-1080, 24 h, read-out: Inhibition Rate

C=CCc1cccc(/C=N/NC(=O)CN2CCN(Cc3ccccc3)CC2)c1O [ZYS-1, 1-Piperazineacetic acid, 4-(phenylmethyl)-2-[[2-hydroxy-3-(2-propen-1-yl)phenyl]methylene]]
Cell number (transmembrane cells) (HGC-27 cells [1]; 2 μM): 33.00 ± 10.00 | Cell number (transmembrane cells) (HGC-27 cells [1]; 4 μM): 26.30 ± 13.37 | Cell number (transmembrane cells) (HGC-27 cells [1]; 8 μM): 22.44 ± 9.82 | inhibition at 2 µM (HGC-27 cells [1]; [3]): 24.6% | inhibition at 4 µM (HGC-27 cells [1]; [3]): 39.9% | inhibition at 8 µM (HGC-27 cells [1]; [3]): 48.7% | Cell number (transmembrane cells) (HT-1080 cells; 2 μM): 24.67 ± 8.46 | Cell number (transmembrane cells) (HT-1080 cells; 4 μM): 16.58 ± 4.18 | Cell number (transmembrane cells) (HT-1080 cells; 8 μM): 16.08 ± 5.07 | inhibition at 2 µM (HT-1080 cells; [4]): 33.5% | inhibition at 4 µM (HT-1080 cells; [4]): 55.3% | inhibition at 8 µM (HT-1080 cells; [4]): 56.6% | inhibition of tubule formation compared with positive control 2.5 μg/mL Endostar (HUVEC; 2 μM ZYS-1 group): similar | effect on formation of endothelial cell tubules induced in vitro (HUVEC; 2, 1, 0.5 μM, 18 h): strong inhibitory effect | pIC50 (HUVECs): 5.59 | area of cell migration into scratch (HGC-27 cells [2]; 2 μM, 4 h): 0.12 ± 0.01 mm^2 | area of cell migration into scratch (HGC-27 cells [2]; 2 μM, 8 h): 0.16 ± 0.02 mm^2 | area of cell migration into scratch (HGC-27 cells [2]; 2 μM, 12 h): 0.20 ± 0.02 mm^2 | area of cell migration into scratch (HGC-27 cells [2]; 4 μM, 4 h): 0.04 ± 0.01* mm^2 | area of cell migration into scratch (HGC-27 cells [2]; 4 μM, 8 h): 0.07 ± 0.01* mm^2 | area of cell migration into scratch (HGC-27 cells [2]; 4 μM, 12 h): 0.08 ± 0.02** mm^2
